The record followed here is patent US10246453B2, “Benzenesulfonamide compounds and their use as therapeutic agents” (Xenon Pharmaceuticals Inc., priority 2016, dated 2019).

One data set concerns the target NaV1.1 (Homo sapiens (Human), UniProt P35498). In words: Sodium Influx Assay (Flux), NaV1.1. The data set is classed as cell-based. As to conditions: Trex HEK293 cells, ANG2 dye; arithmetic mean.
A further data set has as its target NaV1.5 (Homo sapiens (Human), UniProt Q14524). Briefly: Sodium Influx Assay (Flux), NaV1.5. Conditions: read-out: Flux NaV1.5 IC50; Trex HEK293 cells, ANG2 dye; arithmetic mean.
In a further data set the target is NaV1.6 (Homo sapiens (Human), UniProt Q9UQD0). In words: Sodium Influx Assay (Flux), NaV1.6. Conditions: read-out: Flux NaV1.6 IC50; Trex HEK293 cells, ANG2 dye; arithmetic mean.

pIC50: −log10 of the molar value. Where a name gives a salt, the structure may show the parent alone.

NaV1.5, sequence (Q14524 other isoform, or with tags, fused parts or gaps): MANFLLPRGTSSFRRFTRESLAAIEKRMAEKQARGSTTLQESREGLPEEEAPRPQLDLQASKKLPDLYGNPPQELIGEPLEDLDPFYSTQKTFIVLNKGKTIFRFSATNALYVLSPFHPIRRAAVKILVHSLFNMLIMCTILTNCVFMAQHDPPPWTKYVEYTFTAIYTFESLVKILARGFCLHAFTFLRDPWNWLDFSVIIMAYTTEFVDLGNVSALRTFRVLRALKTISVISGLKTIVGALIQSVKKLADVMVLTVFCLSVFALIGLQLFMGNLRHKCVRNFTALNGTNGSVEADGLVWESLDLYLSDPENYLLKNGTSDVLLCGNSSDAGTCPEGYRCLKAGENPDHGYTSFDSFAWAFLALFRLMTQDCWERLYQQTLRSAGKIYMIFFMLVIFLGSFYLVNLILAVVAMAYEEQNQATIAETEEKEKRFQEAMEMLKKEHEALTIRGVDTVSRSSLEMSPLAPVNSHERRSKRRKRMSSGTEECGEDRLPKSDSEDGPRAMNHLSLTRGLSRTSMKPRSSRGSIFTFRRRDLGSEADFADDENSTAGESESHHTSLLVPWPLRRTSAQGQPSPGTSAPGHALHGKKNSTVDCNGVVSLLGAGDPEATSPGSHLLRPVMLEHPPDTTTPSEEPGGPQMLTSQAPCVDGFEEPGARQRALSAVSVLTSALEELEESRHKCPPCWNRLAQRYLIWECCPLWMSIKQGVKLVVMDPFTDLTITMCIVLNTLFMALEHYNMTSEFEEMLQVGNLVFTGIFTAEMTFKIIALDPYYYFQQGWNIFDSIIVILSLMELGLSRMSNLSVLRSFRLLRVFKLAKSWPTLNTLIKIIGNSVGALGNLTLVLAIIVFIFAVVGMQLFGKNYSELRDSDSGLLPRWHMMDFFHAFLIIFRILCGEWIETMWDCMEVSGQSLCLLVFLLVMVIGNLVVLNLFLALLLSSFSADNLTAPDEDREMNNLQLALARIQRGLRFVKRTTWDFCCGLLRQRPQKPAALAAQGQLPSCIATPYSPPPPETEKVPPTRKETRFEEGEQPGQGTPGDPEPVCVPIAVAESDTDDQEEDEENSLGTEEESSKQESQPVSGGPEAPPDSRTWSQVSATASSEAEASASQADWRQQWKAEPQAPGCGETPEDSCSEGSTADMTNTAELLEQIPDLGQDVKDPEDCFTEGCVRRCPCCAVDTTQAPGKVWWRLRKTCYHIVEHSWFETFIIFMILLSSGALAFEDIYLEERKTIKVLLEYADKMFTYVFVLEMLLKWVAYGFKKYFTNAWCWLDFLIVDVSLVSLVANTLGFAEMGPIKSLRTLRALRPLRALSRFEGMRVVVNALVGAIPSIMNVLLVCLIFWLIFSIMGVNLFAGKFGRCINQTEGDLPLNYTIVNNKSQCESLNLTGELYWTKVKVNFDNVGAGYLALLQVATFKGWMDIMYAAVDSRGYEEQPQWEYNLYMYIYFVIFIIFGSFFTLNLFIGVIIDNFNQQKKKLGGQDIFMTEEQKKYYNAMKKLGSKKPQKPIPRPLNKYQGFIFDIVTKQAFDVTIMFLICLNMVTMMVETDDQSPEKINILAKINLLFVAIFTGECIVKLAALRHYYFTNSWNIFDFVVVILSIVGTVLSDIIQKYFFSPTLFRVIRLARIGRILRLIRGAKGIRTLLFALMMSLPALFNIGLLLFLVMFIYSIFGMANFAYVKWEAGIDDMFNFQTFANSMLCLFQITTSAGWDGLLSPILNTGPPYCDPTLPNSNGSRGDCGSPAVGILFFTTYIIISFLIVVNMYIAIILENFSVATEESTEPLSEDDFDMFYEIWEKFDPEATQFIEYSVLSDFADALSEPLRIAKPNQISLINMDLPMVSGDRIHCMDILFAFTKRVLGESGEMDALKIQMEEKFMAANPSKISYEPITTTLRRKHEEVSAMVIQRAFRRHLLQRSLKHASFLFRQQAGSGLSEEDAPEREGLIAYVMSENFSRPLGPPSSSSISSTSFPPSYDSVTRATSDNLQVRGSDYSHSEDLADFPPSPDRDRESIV

For orientation: pIC50 means the negative decadic logarithm of the IC50, by convention in mol/L. For `CC[C@@H](c1ccccc1Cl)N1CC[C@H](N(C)c2cc(F)c(S(=O)(=O)Nc3cscn3)cc2Cl)C1` [Example 248, 5-chloro-4-(((S)-1-((S)-1-(2-chlorophenyl)propyl)pyrrolidin-3-yl)(methyl)amino)-2-fluoro-N-(thiazol-4-yl)benzenesulfonamide 2,2,2-trifluoroacetate], the values for the pIC50 at NaV1.1, on NaV1.5 and at NaV1.6 were 5.26, 5.15 and 5.48, respectively.
Taken in the same sequence, the figures for `C[C@@H](c1ccccc1)N1CC[C@H](N(C)c2ccc(S(=O)(=O)Nc3cscn3)cc2Cl)C1` [Example 250, 3-chloro-4-(methyl((S)-1-((S)-1-phenylethyl)pyrrolidin-3-yl)amino)-N-(thiazol-4-yl)benzenesulfonamide 2,2,2-trifluoroacetate] were 5.26, 5.19 and 5.85.
Taken in the same sequence, the figures for `CN(c1ccc(S(=O)(=O)Nc2ncns2)cc1Cl)[C@H]1CCN(Cc2ccccc2Cl)C1` [Example 252, (S)-3-chloro-4-((1-(2-chlorobenzyl)pyrrolidin-3-yl)(methyl)amino)-N-(1,2,4-thiadiazol-5-yl)benzenesulfonamide 2,2,2-trifluoroacetate] were 4.77, 5.09 and 6.52.
On the same counts, the results for `CC1(Nc2ccc(S(=O)(=O)Nc3cscn3)cc2Cl)CN(Cc2ccccc2)C1` [Example 255, 4-((1-benzyl-3-methylazetidin-3-yl)amino)-3-chloro-N-(thiazol-4-yl)benzenesulfonamide 2,2,2-trifluoroacetate] are 5.04, 4.90 and 5.43.
For `O=S(=O)(Nc1cscn1)c1cc(Cl)c(N[C@H]2CCN(Cc3ccccc3)C2)cc1F` [Example 258, (S)-4-((1-benzylpyrrolidin-3-yl)amino)-5-chloro-2-fluoro-N-(thiazol-4-yl)benzenesulfonamide formate], the figures for the pIC50 on NaV1.1, on NaV1.5 and at NaV1.6 were 4.89, 4.81 and 5.10, respectively.
Taken in the same sequence, the figures for `O=S(=O)(Nc1cscn1)c1cc(Cl)c(N[C@@H]2CCN(Cc3ccccc3)C2)cc1F` [Example 261, (R)-4-((1-benzylpyrrolidin-3-yl)amino)-5-chloro-2-fluoro-N-(thiazol-4-yl)benzenesulfonamide] were 5.08, 4.61 and 5.22.
On the same counts, the results for `CN(c1cc(F)c(S(=O)(=O)Nc2cscn2)cc1Cl)[C@@H]1CCN(Cc2ccccc2)C1` [Example 262, (R)-4-((1-benzylpyrrolidin-3-yl)(methyl)amino)-5-chloro-2-fluoro-N-(thiazol-4-yl)benzenesulfonamide] are 4.60, 4.54 and 4.88.
On the same counts, the results for `O=S(=O)(Nc1cscn1)c1cc(Cl)c(N[C@@H]2CN(Cc3ccccc3)CC23CC3)cc1F` [Example 264, (S)-4-((5-benzyl-5-azaspiro[2.4]heptan-7-yl)amino)-5-chloro-2-fluoro-N-(thiazol-4-yl)benzenesulfonamide 2,2,2-trifluoroacetate] are 5.22, 4.88 and 5.32.
As to `CN(c1cc(F)c(S(=O)(=O)Nc2cscn2)cc1Cl)[C@@H]1CN(Cc2ccccc2)CC12CC2` [Example 265, (S)-4-((5-benzyl-5-azaspiro[2.4]heptan-7-yl)(methyl)amino)-5-chloro-2-fluoro-N-(thiazol-4-yl)benzenesulfonamide 2,2,2-trifluoroacetate], the values for the pIC50 against NaV1.1, on NaV1.5 and on NaV1.6 were 5.20, 5.17 and 5.32, respectively.
Taken in the same sequence, the figures for `Cc1ccc(F)c(CN2CC[C@](C)(Nc3ccc(S(=O)(=O)Nc4cscn4)cc3Cl)C2)c1` [Example 266, (S)-3-chloro-4-((1-(2-fluoro-5-methylbenzyl)-3-methylpyrrolidin-3-yl)amino)-N-(thiazol-4-yl)benzenesulfonamide formate] were 5.57, 5.69 and 5.75.
On to `O=S(=O)(Nc1cscn1)c1c(F)cc(O[C@H]2CCN(Cc3ccccc3)C2)c(Cl)c1F` [Example 268, (S)-4-((1-benzylpyrrolidin-3-yl)oxy)-3-chloro-2,6-difluoro-N-(thiazol-4-yl)benzenesulfonamide hydrochloride], for which the results for the pIC50 on NaV1.1, on NaV1.5 and on NaV1.6 were less than 4.52, 4.55 and 5.31, respectively.
On the same counts, the results for `CN(c1cc(F)c(S(=O)(=O)Nc2cscn2)cc1C(F)F)[C@H]1CCN(Cc2ccccc2)C1` [Example 270, (S)-4-((1-benzylpyrrolidin-3-yl)(methyl)amino)-5-(difluoromethyl)-2-fluoro-N-(thiazol-4-yl)benzenesulfonamide formate] are 4.66, 4.54 and 5.32.
For `Cc1cc(S(=O)(=O)Nc2cscn2)c(F)cc1N[C@@H]1CCN(Cc2ccccc2)C1` [Example 271, (R)-4-((1-benzylpyrrolidin-3-yl)amino)-2-fluoro-5-methyl-N-(thiazol-4-yl)benzenesulfonamide formate], the results for the pIC50 at NaV1.1, on NaV1.5 and on NaV1.6 were 5.06, 5.09 and 5.39, respectively.
Regarding `Cc1cc(S(=O)(=O)Nc2cscn2)c(F)cc1O[C@H]1CCN(Cc2ccccc2)C1` [Example 273, (S)-4-((1-benzylpyrrolidin-3-yl)oxy)-2-fluoro-5-methyl-N-(thiazol-4-yl)benzenesulfonamide 2,2,2-trifluoroacetate], the pIC50 on NaV1.1 is 4.65; on NaV1.5, 5.15; at NaV1.6, 5.70.
Taken in the same sequence, the figures for `O=S(=O)(Nc1cscn1)c1c(F)cc(O[C@H]2CCN(Cc3ccccc3)C2)c(Br)c1F` [Example 274, (S)-4-((1-benzylpyrrolidin-3-yl)oxy)-3-bromo-2,6-difluoro-N-(thiazol-4-yl)benzenesulfonamide formate] were less than 4.52, 5.00 and 5.73.
For `C=Cc1c(O[C@H]2CCN(Cc3ccccc3)C2)cc(F)c(S(=O)(=O)Nc2cscn2)c1F` [Example 275, (S)-4-((1-benzylpyrrolidin-3-yl)oxy)-2,6-difluoro-N-(thiazol-4-yl)-3-vinylbenzenesulfonamide 2,2,2-trifluoroacetate], the pIC50 was 4.53 on NaV1.1, 4.76 at NaV1.5 and 6.13 on NaV1.6.
On the same counts, the results for `CCc1c(O[C@H]2CCN(Cc3ccccc3)C2)cc(F)c(S(=O)(=O)Nc2cscn2)c1F` [Example 276, (S)-4-((1-benzylpyrrolidin-3-yl)oxy)-3-ethyl-2,6-difluoro-N-(thiazol-4-yl)benzenesulfonamide 2,2,2-trifluoroacetate] are 4.73, 4.75 and 6.25.
Taken in the same sequence, the figures for `Cc1cc(S(=O)(=O)Nc2cscn2)c(F)cc1N(C)[C@H]1CCN(Cc2ccccn2)C1` [Example 278, (S)-2-fluoro-5-methyl-4-(methyl(1-(pyridin-2-ylmethyl)pyrrolidin-3-yl)amino)-N-(thiazol-4-yl)benzenesulfonamide 2,2,2-trifluoroacetate] were less than 4.52, less than 4.52 and 6.05.
For `Cc1cc(S(=O)(=O)Nc2cscn2)ccc1N(C)[C@H]1CCN(Cc2cc(F)ccc2F)C1` [Example 285, (S)-4-((1-(2,5-difluorobenzyl)pyrrolidin-3-yl)(methyl)amino)-3-methyl-N-(thiazol-4-yl)benzenesulfonamide 2,2,2-trifluoroacetate], the pIC50 was 5.36 at NaV1.1, 5.57 at NaV1.5 and 6.41 at NaV1.6.
On the same counts, the results for `CN(c1cc(F)c(S(=O)(=O)Nc2cscn2)c(F)c1)[C@H]1CCN(Cc2ccccc2)C1` [Example 286, (S)-4-((1-benzylpyrrolidin-3-yl)(methyl)amino)-2,6-difluoro-N-(thiazol-4-yl)benzenesulfonamide formate] are 5.64, 5.70 and 5.65.
Taken in the same sequence, the figures for `CN(c1cc(F)c(S(=O)(=O)Nc2cscn2)c(F)c1)[C@H]1CCN(Cc2cccc(C(F)F)c2)C1` [Example 287, (S)-4-((1-(3-(difluoromethyl)benzyl)pyrrolidin-3-yl)(methyl)amino)-2,6-difluoro-N-(thiazol-4-yl)benzenesulfonamide 2,2,2-trifluoroacetate] were 5.11, 5.08 and 5.18.
On the same counts, the results for `Cc1cc(S(=O)(=O)Nc2cscn2)c(F)cc1N[C@H]1CCN(Cc2ccccc2)C1` [Example 288, (S)-4-((1-benzylpyrrolidin-3-yl)amino)-2-fluoro-5-methyl-N-(thiazol-4-yl)benzenesulfonamide 2,2,2-trifluoroacetate] are 4.80, 4.56 and 5.36.
Regarding `CN(c1cc(F)c(S(=O)(=O)Nc2cscn2)cc1C1CC1)[C@H]1CCN(Cc2ccccc2)C1` [Example 289, (S)-4-((1-benzylpyrrolidin-3-yl)(methyl)amino)-5-cyclopropyl-2-fluoro-N-(thiazol-4-yl)benzenesulfonamide 2,2,2-trifluoroacetate], the pIC50 at NaV1.1 was 5.15; on NaV1.5, 4.71; at NaV1.6, 5.89.
In the case of `CCc1cc(S(=O)(=O)Nc2cscn2)c(F)cc1N(C)[C@H]1CCN(Cc2ccccc2)C1` [Example 290, (S)-4-((1-benzylpyrrolidin-3-yl)(methyl)amino)-5-ethyl-2-fluoro-N-(thiazol-4-yl)benzenesulfonamide 2,2,2-trifluoroacetate], the pIC50 was 5.20 against NaV1.1, 5.28 on NaV1.5 and 5.75 on NaV1.6.
